# Values quoted from earlier work as cited in patent publication US9610289B2, “Combinations of AKT inhibitor compounds and erlotinib, and methods of use” (Genentech, Inc., priority 2011, dated 2017).
# Target: T1, topoisomerase I (Homo sapiens, UniProt P11387)
# T1 sequence (P11387 1-765): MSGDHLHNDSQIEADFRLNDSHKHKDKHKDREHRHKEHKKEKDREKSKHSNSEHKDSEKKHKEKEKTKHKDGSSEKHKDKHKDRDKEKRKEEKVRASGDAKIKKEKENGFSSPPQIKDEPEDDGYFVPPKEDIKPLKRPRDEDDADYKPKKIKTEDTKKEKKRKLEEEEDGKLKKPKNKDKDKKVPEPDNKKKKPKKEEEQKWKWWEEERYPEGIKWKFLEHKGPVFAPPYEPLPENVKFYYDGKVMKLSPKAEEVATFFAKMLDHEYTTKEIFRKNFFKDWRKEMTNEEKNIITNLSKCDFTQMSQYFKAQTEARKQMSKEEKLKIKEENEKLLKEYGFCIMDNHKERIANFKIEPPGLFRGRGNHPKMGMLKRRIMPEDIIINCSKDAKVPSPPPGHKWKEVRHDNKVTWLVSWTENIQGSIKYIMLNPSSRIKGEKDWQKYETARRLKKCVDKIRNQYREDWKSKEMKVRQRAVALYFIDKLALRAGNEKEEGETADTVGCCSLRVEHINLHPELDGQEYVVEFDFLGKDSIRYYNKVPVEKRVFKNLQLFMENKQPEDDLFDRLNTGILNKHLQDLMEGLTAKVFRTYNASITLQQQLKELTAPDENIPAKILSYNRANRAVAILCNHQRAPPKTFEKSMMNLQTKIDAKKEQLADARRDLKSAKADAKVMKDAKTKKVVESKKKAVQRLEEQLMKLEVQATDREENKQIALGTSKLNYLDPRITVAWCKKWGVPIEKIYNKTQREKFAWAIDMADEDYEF
# Details: active metabolite versus irinotecan
compound,measurement,value
"CCc1c2c(nc3ccc(O)cc13)-c1cc3c(c(=O)n1C2)COC(=O)[C@]3(O)CC [SN-38, 7-ethyl-10-hydroxy-camptothecin]",more active than irinotecan itself,200 times
